Key:
[1] = target: PIK3CD (Human) (UniProt O00329); experiment: Assessment of PIK3CD Kinase Activity
[2] = target: PIK3CA (human) (UniProt P42336); experiment: Assessment of PIK3CA Kinase Activity
[3] = target: PIK3CG (human) (UniProt P48736); experiment: Assessment of PIK3CG Kinase Activity
[4] = target: PIK3CB (Human) (UniProt P42338); experiment: Assessment of PIK3CB Kinase Activity
PIK3CB (Human), sequence (P42338 whole entry, looked up): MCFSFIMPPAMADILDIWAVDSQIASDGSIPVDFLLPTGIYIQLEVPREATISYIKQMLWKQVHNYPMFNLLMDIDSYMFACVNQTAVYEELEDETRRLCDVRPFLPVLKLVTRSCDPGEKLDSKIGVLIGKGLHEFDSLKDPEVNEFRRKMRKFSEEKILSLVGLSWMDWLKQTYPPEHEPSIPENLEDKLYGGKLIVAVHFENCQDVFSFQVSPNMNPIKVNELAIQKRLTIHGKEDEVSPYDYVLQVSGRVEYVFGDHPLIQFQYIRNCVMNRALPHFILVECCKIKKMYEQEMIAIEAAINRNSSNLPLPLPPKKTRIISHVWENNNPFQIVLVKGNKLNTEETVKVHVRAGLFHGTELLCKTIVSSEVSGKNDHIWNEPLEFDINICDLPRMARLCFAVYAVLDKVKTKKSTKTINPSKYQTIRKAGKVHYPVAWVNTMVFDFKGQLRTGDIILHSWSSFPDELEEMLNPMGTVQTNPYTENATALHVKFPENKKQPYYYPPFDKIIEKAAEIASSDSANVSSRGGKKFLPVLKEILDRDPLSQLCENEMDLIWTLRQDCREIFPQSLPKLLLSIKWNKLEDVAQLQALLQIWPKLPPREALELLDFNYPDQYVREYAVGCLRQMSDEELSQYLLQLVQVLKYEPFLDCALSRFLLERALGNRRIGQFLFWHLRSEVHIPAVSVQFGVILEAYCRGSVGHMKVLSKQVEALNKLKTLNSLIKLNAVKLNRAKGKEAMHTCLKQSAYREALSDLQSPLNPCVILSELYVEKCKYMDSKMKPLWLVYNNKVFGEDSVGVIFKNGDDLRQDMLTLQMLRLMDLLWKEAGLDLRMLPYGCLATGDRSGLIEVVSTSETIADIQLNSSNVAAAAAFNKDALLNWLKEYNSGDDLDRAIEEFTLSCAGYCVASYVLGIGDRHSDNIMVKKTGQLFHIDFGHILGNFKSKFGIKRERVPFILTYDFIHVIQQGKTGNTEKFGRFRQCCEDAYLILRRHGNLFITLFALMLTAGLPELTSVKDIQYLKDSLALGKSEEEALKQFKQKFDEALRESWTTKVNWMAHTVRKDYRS

PIK3CG (human), sequence (P48736 whole entry, looked up): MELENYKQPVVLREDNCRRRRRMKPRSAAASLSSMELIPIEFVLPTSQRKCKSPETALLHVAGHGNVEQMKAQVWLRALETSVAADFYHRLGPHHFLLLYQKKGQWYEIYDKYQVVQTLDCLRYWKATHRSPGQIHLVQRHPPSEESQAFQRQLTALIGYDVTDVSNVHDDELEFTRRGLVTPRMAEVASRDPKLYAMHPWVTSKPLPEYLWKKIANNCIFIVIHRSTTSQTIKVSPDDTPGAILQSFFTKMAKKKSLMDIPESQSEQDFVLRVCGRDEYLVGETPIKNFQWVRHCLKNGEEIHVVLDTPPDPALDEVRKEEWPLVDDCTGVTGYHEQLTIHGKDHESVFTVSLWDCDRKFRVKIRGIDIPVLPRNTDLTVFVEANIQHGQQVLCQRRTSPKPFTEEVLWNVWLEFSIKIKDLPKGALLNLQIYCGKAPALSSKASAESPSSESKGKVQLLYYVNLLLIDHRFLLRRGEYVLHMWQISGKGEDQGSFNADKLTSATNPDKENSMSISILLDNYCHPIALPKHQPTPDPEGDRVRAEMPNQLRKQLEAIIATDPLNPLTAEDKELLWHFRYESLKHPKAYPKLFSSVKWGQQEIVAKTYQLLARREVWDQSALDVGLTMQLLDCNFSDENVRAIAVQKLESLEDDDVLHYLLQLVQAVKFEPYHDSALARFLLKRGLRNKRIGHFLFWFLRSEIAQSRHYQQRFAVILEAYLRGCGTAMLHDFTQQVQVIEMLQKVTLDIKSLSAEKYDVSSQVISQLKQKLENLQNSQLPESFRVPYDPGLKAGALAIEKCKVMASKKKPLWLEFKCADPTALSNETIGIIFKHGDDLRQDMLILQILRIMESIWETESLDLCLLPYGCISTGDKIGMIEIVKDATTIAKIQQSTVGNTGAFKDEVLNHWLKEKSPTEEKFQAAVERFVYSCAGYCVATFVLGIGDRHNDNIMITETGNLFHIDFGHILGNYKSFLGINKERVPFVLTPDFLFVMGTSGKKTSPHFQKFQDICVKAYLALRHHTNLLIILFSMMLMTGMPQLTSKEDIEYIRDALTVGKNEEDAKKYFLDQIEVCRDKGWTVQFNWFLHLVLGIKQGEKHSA
PIK3CD (Human), sequence (O00329 whole entry, looked up): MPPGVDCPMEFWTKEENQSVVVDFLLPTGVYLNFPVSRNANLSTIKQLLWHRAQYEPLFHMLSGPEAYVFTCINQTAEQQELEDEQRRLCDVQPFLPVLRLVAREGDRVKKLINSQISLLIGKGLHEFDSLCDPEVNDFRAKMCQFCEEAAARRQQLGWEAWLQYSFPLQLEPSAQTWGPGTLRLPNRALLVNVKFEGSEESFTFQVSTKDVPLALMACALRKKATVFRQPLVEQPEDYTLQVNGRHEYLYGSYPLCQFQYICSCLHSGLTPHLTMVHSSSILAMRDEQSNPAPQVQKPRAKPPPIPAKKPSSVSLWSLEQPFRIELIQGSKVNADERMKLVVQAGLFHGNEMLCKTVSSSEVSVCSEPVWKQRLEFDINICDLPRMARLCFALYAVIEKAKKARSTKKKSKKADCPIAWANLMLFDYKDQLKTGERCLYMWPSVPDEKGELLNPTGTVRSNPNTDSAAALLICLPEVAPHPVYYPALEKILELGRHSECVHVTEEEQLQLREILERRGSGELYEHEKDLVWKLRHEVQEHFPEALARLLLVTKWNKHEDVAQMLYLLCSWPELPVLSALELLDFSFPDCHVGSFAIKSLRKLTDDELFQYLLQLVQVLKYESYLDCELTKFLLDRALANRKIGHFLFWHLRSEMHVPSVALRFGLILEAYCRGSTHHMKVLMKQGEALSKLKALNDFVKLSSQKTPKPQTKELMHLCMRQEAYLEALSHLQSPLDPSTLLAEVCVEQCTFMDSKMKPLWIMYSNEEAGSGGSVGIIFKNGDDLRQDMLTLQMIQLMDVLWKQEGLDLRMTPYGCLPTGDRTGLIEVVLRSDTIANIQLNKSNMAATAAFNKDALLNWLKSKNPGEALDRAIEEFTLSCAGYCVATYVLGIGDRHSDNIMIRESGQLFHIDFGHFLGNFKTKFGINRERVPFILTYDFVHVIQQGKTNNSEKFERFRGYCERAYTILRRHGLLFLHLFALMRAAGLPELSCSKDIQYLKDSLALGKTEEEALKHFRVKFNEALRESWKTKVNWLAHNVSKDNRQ
PIK3CA (human), sequence (P42336 whole entry, looked up): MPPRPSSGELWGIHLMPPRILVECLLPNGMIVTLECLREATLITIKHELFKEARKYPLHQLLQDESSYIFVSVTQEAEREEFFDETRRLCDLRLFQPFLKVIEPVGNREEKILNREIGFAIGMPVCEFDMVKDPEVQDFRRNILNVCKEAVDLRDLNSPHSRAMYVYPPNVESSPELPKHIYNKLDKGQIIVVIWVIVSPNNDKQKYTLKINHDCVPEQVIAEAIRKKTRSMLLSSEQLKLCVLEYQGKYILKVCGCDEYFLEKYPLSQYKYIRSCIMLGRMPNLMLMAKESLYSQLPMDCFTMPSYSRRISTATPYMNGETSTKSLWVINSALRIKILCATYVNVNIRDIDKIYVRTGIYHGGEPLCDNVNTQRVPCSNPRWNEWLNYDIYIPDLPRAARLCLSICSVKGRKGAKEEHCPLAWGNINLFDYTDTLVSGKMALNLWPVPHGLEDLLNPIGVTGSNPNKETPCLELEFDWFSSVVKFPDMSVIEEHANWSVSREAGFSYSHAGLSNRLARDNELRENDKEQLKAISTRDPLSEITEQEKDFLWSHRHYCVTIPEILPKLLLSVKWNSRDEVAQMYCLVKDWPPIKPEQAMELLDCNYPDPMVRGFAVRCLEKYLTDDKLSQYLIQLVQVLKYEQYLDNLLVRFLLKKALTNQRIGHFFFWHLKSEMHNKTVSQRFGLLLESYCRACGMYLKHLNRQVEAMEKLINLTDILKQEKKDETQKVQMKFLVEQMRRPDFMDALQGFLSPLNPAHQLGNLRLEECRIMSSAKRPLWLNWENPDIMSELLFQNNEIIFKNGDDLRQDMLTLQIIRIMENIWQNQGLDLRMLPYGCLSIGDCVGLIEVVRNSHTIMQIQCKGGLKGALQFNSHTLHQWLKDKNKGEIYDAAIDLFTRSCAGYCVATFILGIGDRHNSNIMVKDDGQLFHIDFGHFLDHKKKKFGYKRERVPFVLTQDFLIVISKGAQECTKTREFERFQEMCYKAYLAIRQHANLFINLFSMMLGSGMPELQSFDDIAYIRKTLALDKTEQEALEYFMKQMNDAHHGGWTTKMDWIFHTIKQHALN

Row | SMILES | IC50 [1] [nM] | IC50 [2] [nM] | IC50 [3] [nM] | IC50 [4] [nM]
1 | C[C@H](Nc1ncnc2ccnn12)c1cc2cccc(C(F)(F)F)c2c(=O)n1-c1ccccc1 | < 100 | > 10000 | < 100 | 
2 | C[C@H](Nc1ncnn2ccnc12)c1cc2cccc(Cl)c2c(=O)n1-c1ccccc1 | < 100 |  | < 100 | 100 to 1000
3 | C[C@H](Nc1ncnc2cccnc12)c1cc2cccc(-c3cnc(N)nc3)c2c(=O)n1-c1ccccc1 | < 100 | 100 to 1000 | < 100 | 
4 | Cc1cccc2cc([C@H](C)Nc3nc(N)nc4cccnc34)n(-c3cccc(F)c3)c(=O)c12 | < 100 | 100 to 1000 | < 100 | 
5 | C[C@H](Nc1nc(N)ncc1C#N)c1cc2cccc(C(F)(F)F)c2c(=O)n1-c1cccc(F)c1 | < 100 |  | < 100 | 100 to 1000
6 | C[C@H](Nc1ccnc2scnc12)c1cc2cccc(C(F)(F)F)c2c(=O)n1-c1ccccc1 | < 100 |  | < 100 | 100 to 1000
7 | C[C@H](Nc1ccnn2ccnc12)c1cc2cccc(-c3cnn(C)c3)c2c(=O)n1-c1cccc(F)c1 | < 100 |  | < 100 | > 10000
8 | C[C@H](Nc1ncnc2cccnc12)c1cc2cc(F)ccc2c(=O)n1-c1ccccc1 | 100 to 1000 |  |  | > 10000
9 | C[C@H](Nc1nc(N)ncc1C#N)c1cc2cccc(C(F)(F)F)c2c(=O)n1-c1ccccc1 | < 100 |  | < 100 | 100 to 1000
10 | COc1ccc(-c2cccc3cc([C@H](C)Nc4ncnc5cccnc45)n(-c4ccccc4)c(=O)c23)cn1 | < 100 |  | < 100 | > 10000
11 | C[C@H](Nc1ncnc2[nH]cc(F)c12)c1cc2cccc(C(F)(F)F)c2c(=O)n1-c1ccccc1 | < 100 |  | < 100 | 
12 | C[C@H](Nc1ccnc2cccnc12)c1cc2cccc(-c3cnn(C)c3)c2c(=O)n1-c1ccccc1 | < 100 |  | < 100 | 
13 | C[C@H](Nc1ncnc2cccnc12)c1cc2c(F)cccc2c(=O)n1-c1ccccc1 | < 100 |  | < 100 | 
14 | C[C@H](Nc1ncnc2cccnc12)c1cc2scc(Cl)c2c(=O)n1-c1ccccc1 | < 100 |  | < 100 | 100 to 1000
15 | COc1ncc(-c2cccc3cc([C@H](C)Nc4ncnc5cccnc45)n(-c4cccc(F)c4)c(=O)c23)cn1 | < 100 |  | 100 to 1000 | > 10000
16 | C[C@H](Nc1nc(N)nc2scnc12)c1cc2cccc(C(F)(F)F)c2c(=O)n1-c1ccccc1 | < 100 |  | < 100 | 
17 | C[C@H](Nc1ccnc2ccnn12)c1cc2scc(Cl)c2c(=O)n1-c1ccccc1 | < 100 |  | < 100 | 100 to 1000
18 | C[C@H](Nc1ccnc2ccnn12)c1cc2cccc(-c3cnn(C)c3)c2c(=O)n1-c1cccc(F)c1 | < 100 |  | 100 to 1000 | > 10000
19 | C[C@H](Nc1ccnn2ccnc12)c1cc2cccc(-c3cnn(C)c3)c2c(=O)n1C1CC1 | < 100 |  | 100 to 1000 | 
20 | C[C@H](Nc1ncnc2scnc12)c1cc2scc(C(F)(F)F)c2c(=O)n1-c1ccccc1 | < 100 |  | < 100 | 100 to 1000
21 | CNc1nc(N[C@@H](C)c2cc3cccc(Cl)c3c(=O)n2-c2ccccc2)c2ncccc2n1 | < 100 |  | < 100 | 
22 | C[C@H](Nc1ncnc2cccnc12)c1cc2cccc(C(F)(F)F)c2c(=O)n1-c1cccc(F)c1 | < 100 |  | < 100 | 

Row | SMILES | IC50 [1] [nM] | IC50 [2] [nM] | IC50 [3] [nM] | IC50 [4] [nM]
23 | C[C@H](Nc1ncnc2cccnc12)c1cc2cccc(-c3cnn(C)c3)c2c(=O)n1C1CC1 | < 100 |  | < 100 | 
24 | C[C@H](Nc1ncnc2cccnc12)c1cc2cccc(-c3ccc(N)nc3)c2c(=O)n1-c1ccccc1 | < 100 |  | < 100 | > 10000
25 | C[C@H](Nc1ncnc(N)c1C#N)c1cc2cccc(C(F)(F)F)c2c(=O)n1-c1cccc(F)c1 | < 100 |  | < 100 | 100 to 1000
26 | C[C@H](Nc1ccnc2cccnc12)c1cc2cccc(Cl)c2c(=O)n1-c1ccccc1 | < 100 |  | < 100 | 100 to 1000
27 | C[C@H](Nc1ncnc2cccnc12)c1cc2cccc(Cl)c2c(=O)n1-c1ccccc1 | < 100 |  | < 100 | 100 to 1000
28 | Cc1cc(-c2cccc3cc([C@H](C)Nc4ncnc5cccnc45)n(-c4ccccc4)c(=O)c23)cnc1C | < 100 |  | 100 to 1000 | > 10000
29 | C[C@H](Nc1nc(N)nc2cccnc12)c1cc2cccc(-c3ccnnc3)c2c(=O)n1-c1ccccc1 | < 100 |  | < 100 | 
30 | C[C@H](Nc1ccnn2ccnc12)c1cc2scc(Cl)c2c(=O)n1-c1ccccc1 | < 100 |  | < 100 | 100 to 1000
31 | C[C@H](Nc1ncnc2[nH]cnc12)c1cc2cccc(C(F)(F)F)c2c(=O)n1-c1ccccc1 | < 100 |  | < 100 | 100 to 1000
32 | C[C@H](Nc1ccnn2ccnc12)c1cc2cccc(C(F)(F)F)c2c(=O)n1-c1cccc(F)c1 | < 100 |  | < 100 | 
33 | C[C@H](Nc1ncnc2[nH]cc(C(N)=O)c12)c1cc2cccc(C(F)(F)F)c2c(=O)n1-c1ccccc1 | < 100 |  | < 100 | 100 to 1000
34 | C[C@H](Nc1ncnc2ccnn12)c1cc2cccc(Cl)c2c(=O)n1-c1ccccc1 | < 100 |  | < 100 | 100 to 1000
35 | C[C@H](Nc1ccnc2ccnn12)c1cc2cccc(-c3cnn(C)c3)c2c(=O)n1-c1ccccc1 | < 100 |  | < 100 | 
36 | C[C@H](Nc1ccnc2ccnn12)c1cc2cccc(-c3cnn(C)c3)c2c(=O)n1C1CC1 | < 100 |  |  | 
37 | Cc1ncc(-c2cccc3cc([C@H](C)Nc4nc(N)nc5cccnc45)n(-c4cccc(F)c4)c(=O)c23)cn1 | < 100 |  | < 100 | > 10000
38 | C[C@H](Nc1ccnc2ccnn12)c1cc2cccc(Cl)c2c(=O)n1CCN1CCCC1 |  | > 10000 | > 10000 | 
39 | C[C@H](Nc1ccnn2ccnc12)c1cc2cccc(C(F)(F)F)c2c(=O)n1-c1ccccc1 | < 100 |  | < 100 | 100 to 1000
40 | C[C@H](Nc1ccnc2ccnn12)c1cc2cccc(Cl)c2c(=O)n1-c1cccc(F)c1 | < 100 |  | < 100 | 
41 | C[C@H](Nc1ccnc2cccnc12)c1cc2cccc(Cl)c2c(=O)n1-c1cccc(F)c1 | < 100 |  | < 100 | 
42 | C[C@H](Nc1ccnn2ccnc12)c1cc2cccc(-c3cnn(C)c3)c2c(=O)n1-c1ccccc1 | < 100 |  | < 100 | 
43 | C[C@H](Nc1ncnc2scnc12)c1cc2cccc(C(F)(F)F)c2c(=O)n1-c1cccc(F)c1 | < 100 |  | < 100 | 100 to 1000
44 | C[C@H](Nc1ncnn2ccnc12)c1cc2cccc(C(F)(F)F)c2c(=O)n1-c1ccccc1 | < 100 |  | < 100 | 100 to 1000

Row | SMILES | IC50 [1] [nM] | IC50 [2] [nM] | IC50 [3] [nM] | IC50 [4] [nM]
45 | Cc1nn(C)cc1-c1cccc2cc([C@H](C)Nc3ncnc4cccnc34)n(-c3ccccc3)c(=O)c12 | < 100 |  | < 100 | > 10000
46 | C[C@H](Nc1nc(N)nc2cccnc12)c1cc2cccc(-c3ccnnc3)c2c(=O)n1-c1cccc(F)c1 | < 100 |  | < 100 | > 10000
47 | Cc1cccc2cc([C@H](C)Nc3ncnc4cccnc34)n(-c3cccc(F)c3)c(=O)c12 | < 100 |  | < 100 | 
48 | C[C@H](Nc1nc(N)nc2cccnc12)c1cc2cccc(-c3cnn(C)c3)c2c(=O)n1-c1ccccc1 | < 100 |  | < 100 | > 10000
49 | C[C@H](Nc1nc(N)nc2cccnc12)c1cc2cccc(-c3cnn(C)c3)c2c(=O)n1-c1cccc(F)c1 | < 100 |  | < 100 | > 10000
50 | C[C@H](Nc1ncnc2cccnc12)c1cc2cccc(C(F)(F)F)c2c(=O)n1-c1ccccc1 | < 100 |  | < 100 | 100 to 1000
51 | C[C@H](Nc1ccnn2ccnc12)c1cc2cccc(Cl)c2c(=O)n1C1CC1 | < 100 |  | 100 to 1000 | 100 to 1000
52 | COc1ncc(-c2cccc3cc([C@H](C)Nc4ccnn5ccnc45)n(-c4ccccc4)c(=O)c23)cn1 | < 100 |  | 100 to 1000 | > 10000
53 | C[C@H](Nc1nc(N)nc2cccnc12)c1nc2cccc(-c3ccnnc3)c2c(=O)n1-c1ccccc1 | < 100 |  | < 100 | > 10000
54 | C[C@H](Nc1nc(N)nc2cccnc12)c1cc2cccc(-c3cncnc3)c2c(=O)n1-c1ccccc1 | < 100 |  | < 100 | 
55 | C[C@H](Nc1ncnc2cccnc12)c1cc2ccc(F)cc2c(=O)n1-c1ccccc1 | < 100 |  | < 100 | 
56 | C[C@H](Nc1nc(N)nc2cccnc12)c1cc2cccc(C(F)(F)F)c2c(=O)n1-c1ccccc1 | < 100 |  | < 100 | 100 to 1000
57 | C[C@H](Nc1ccnn2ccnc12)c1cc2cccc(Cl)c2c(=O)n1CCN1CCCC1 |  | > 10000 | > 10000 | 
58 | C[C@H](Nc1nc(N)nc2[nH]cnc12)c1cc2cccc(C(F)(F)F)c2c(=O)n1-c1cccc(F)c1 | < 100 |  | < 100 | 100 to 1000
59 | C[C@H](Nc1ccnc2ccnn12)c1cc2cccc(C(F)(F)F)c2c(=O)n1-c1ccccc1 | < 100 |  | < 100 | 100 to 1000
60 | C[C@H](Nc1ccnc2ccnn12)c1cc2cccc(Cl)c2c(=O)n1C1CC1 | < 100 |  | 100 to 1000 | 100 to 1000
61 | C[C@H](Nc1ccnc2ccnn12)c1cc2cccc(Cl)c2c(=O)n1-c1ccccc1 | < 100 |  | < 100 | 100 to 1000
62 | C[C@H](Nc1ccnn2ccnc12)c1cc2cccc(Cl)c2c(=O)n1-c1cccc(F)c1 | < 100 |  | < 100 | 100 to 1000
63 | C[C@H](Nc1ncnc2ccnn12)C1=Cc2cccc(Cl)c2C(C(=O)N2CCOCC2)N1 (stereo partly specified) | 100 to 1000 | > 10000 |  | 
64 | C[C@H](Nc1ncnc2cccnc12)c1cc2cccc(-c3cnn(C)c3)c2c(=O)n1-c1cccc(F)c1 | < 100 |  | < 100 | > 10000
65 | C[C@H](Nc1ncnn2ccnc12)c1cc2cccc(Cl)c2c(=O)n1-c1cccc(F)c1 | < 100 |  | < 100 | 

Source: the Kinase Knowledgebase extract (Sharma et al. 2016)
